In patent US11834414B2, “1-methyl-4-[(4-phenylphenyl)sulfonylmethyl]cyclohexyanol and 1-methyl-4-[[4-(2-pyridyl)phenyl]sulfonylmethyl]cyclohexanol compounds and their therapeutic use” (Modern Biosciences Limited, priority 2018, dated 2023):
Values after ≈ are worked out from the molar mass of the structure shown. “Also recorded” adds a separate entry of the source.

Key:
CYP2C9 = CYP2C9 (Homo sapiens (Human), UniProt P11712); experiment: Human Cytochrome P450 Inhibition Assay (Bactosomes); format: in vitro ADME; conditions: recombinant Bactosomes, 10 minutes, 37° C.
Chain of CYP2C9 (P11712 whole entry): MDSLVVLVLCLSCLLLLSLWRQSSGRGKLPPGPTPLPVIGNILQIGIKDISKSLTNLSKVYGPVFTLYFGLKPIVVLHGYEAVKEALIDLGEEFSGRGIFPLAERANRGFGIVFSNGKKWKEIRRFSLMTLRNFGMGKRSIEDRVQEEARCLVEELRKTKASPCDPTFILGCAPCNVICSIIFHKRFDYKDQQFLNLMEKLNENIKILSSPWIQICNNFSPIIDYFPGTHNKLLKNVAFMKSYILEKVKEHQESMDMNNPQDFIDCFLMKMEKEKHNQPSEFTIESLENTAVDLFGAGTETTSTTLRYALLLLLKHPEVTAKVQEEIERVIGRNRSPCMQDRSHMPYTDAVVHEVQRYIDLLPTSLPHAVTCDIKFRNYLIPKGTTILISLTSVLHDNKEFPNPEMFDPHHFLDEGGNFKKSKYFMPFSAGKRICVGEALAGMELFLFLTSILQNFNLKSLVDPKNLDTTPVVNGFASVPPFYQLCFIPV

CYP2C19 = CYP2C19 (Homo sapiens (Human), UniProt P33261); experiment: as above; format: in vitro ADME; conditions: recombinant Bactosomes, 10 minutes, 37° C.
Chain of CYP2C19 (P33261 whole entry): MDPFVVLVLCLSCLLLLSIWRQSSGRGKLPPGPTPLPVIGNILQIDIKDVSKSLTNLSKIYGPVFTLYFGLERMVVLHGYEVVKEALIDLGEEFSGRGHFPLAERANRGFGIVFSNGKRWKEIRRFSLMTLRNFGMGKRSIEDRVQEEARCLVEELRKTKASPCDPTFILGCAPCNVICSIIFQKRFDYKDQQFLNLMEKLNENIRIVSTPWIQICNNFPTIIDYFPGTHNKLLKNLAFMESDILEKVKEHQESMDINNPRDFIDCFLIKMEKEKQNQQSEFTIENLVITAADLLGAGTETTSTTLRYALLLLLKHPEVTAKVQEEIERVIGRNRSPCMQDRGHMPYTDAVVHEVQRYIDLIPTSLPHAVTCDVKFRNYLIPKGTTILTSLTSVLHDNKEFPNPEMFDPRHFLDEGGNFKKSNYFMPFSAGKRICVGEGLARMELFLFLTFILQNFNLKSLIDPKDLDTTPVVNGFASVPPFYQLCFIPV

CYP2D6 = CYP2D6 (Homo sapiens (Human), UniProt P10635); experiment: as above; format: in vitro ADME; conditions: recombinant Bactosomes, 10 minutes, 37° C.
Chain of CYP2D6 (P10635 whole entry): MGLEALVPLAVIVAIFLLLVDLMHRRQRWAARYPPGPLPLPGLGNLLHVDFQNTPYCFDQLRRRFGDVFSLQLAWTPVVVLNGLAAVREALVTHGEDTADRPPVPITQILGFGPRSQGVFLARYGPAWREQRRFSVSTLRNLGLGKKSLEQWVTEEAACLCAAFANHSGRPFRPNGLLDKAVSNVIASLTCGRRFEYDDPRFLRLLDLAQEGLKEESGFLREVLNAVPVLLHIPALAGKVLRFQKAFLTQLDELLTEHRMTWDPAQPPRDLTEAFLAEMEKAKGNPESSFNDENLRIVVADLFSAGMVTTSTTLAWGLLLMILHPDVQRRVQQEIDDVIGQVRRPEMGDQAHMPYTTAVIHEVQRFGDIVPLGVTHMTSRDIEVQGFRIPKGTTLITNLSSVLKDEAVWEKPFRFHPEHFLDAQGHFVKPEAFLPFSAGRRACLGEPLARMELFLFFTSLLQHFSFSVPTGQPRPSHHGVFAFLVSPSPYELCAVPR

CYP3A4 = CYP3A4 (Homo sapiens (Human), UniProt P08684); experiment: as above; format: in vitro ADME; conditions: recombinant Bactosomes, 10 minutes, 37° C.
Chain of CYP3A4 (P08684 whole entry): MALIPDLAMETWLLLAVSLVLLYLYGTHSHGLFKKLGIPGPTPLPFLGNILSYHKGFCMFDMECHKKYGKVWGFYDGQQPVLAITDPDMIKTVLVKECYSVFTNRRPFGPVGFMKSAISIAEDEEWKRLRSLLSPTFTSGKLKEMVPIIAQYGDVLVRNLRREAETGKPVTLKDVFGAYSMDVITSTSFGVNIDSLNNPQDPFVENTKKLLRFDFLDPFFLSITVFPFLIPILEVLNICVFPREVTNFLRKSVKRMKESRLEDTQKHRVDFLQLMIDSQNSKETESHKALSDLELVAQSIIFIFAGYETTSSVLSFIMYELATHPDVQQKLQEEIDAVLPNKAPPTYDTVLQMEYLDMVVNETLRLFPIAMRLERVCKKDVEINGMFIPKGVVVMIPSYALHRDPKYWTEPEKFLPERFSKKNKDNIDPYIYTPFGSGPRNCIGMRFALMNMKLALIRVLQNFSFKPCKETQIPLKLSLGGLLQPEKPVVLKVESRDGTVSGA

CYP1A2 = CYP1A2 (Homo sapiens (Human), UniProt P05177); conditions: recombinant enzyme
Chain of CYP1A2 (P05177 whole entry): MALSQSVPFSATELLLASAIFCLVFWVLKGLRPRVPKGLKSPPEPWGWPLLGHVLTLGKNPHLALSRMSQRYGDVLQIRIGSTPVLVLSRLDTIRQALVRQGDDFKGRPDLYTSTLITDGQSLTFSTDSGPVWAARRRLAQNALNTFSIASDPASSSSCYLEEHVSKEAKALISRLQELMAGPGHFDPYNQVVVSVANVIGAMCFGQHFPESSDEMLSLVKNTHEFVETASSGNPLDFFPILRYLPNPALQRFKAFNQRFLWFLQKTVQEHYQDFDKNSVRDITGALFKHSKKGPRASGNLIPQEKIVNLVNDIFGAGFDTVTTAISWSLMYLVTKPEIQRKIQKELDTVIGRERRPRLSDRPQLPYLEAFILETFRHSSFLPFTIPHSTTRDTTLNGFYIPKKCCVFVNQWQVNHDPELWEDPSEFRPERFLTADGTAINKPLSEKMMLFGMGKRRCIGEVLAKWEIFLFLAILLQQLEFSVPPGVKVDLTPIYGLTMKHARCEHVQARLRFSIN

[1] = system: Thp1 human monocytic cells; experiment: Thp1 Monocyte ATP Production Assay; format: cell-based; conditions: Homo sapiens, THP-1, 24 h, Thp1 cells, 24 hour incubation, ATPLite; 9-point range 10 μM to 10 nM, mean of 2 independent experiments
Experimental: In vitro potency of test compounds was determined by incubation with Thp1 human monocytic cells and subsequent determination of Adenosine TriPhosphate (ATP) levels using firefly luciferase.
ATP is present in all metabolically active cells. When cells lose integrity, their ability to synthesise ATP is rapidly lost. […] See, e.g., Kang et al., 2015; Jiang et al., 2013. Levels of ATP can be monitored using a system based on firefly (Photinus pyralis) luciferase (see, e.g., Auld et al., 2009) using commercially available kits. A system known as
ATPlite™ was using to measure effects of the test compounds on cellular viability in vitro. This one-step assay system is an adenosine triphosphate (ATP) monitoring system based on the production of light caused by the reaction of ATP from the cells with added luciferase and D-luciferin, as illustrated in the reaction scheme below:
The emitted light is proportional to the ATP concentration.
Thp1 cells were plated at 112500 cells per well in 125 μL RPMI-1640 (no glucose) with 1% FBS in 96-well plates. Test compounds were prepared as 100 mM solutions in DMSO. These stock solutions were diluted in DMSO and then diluted 1000× in culture medium (RPMI) before being added directly to the wells so as to give the desired final compound concentration. After a 24 hour incubation at 37° C./5% CO2, ATPLite™ (Perkin Elmer) was added to each well (1:10 v/v, 10 μL). The plate was then incubated at room temperature for 5 minutes and the emitted light was quantified on Viewlux with a measurement time of 0.3 seconds and binning 4×4.
The average results for each test compound were expressed as a percent (%) of the average control value reflecting cell viability. The average values across the concentrations tested were then plotted and the IC50 for was calculated by fitting the data to a 4-parameter IC50 equation using software from Graf it (Erithacus Software). Each experiment was repeated twice and the data are presented as the mean IC50 from both experiments.

Rat hepatocyte stability = format: in vitro ADME; conditions: rat, pooled rat hepatocytes, 60 minute incubation; for hepatocyte CLint at 1 μM: read-out: Rat Clint (μL/min/million cells); for half-life at 1 μM: read-out: Rat t1/2
Experimental: (§1) Metabolic stability of test compounds was measured by determination of the rate of disappearance of the compound when incubated in the presence of rat or human hepatocytes, a primary source of the most important enzymes (cytochrome P450s) involved in drug metabolism. Study of drug stability in the presence of primary hepatocytes is accepted as a valuable model permitting rapid prediction of in vivo drug stability.
(§2) Rat or human hepatocytes were obtained from a commercial source and viability was assessed using a trypan blue solution prior to use. Test compounds (final concentration 1 μM, 0.1% DMSO, 0.9% acetonitrile) or a marker (diclofenac or diltiazem, final assay concentration 1 μM, 0.1% DMSO, 0.9% acetonitrile) were incubated with pooled hepatocytes for a 60 minute period and samples removed at up to 6 time points and analysed by LC-MS/MS for the presence/amount of test compounds.
(§3) Each compound was incubated for 0, 5, 15, 30, 45, or 60 minutes. The reactions were stopped by the addition of methanol containing an internal standard (1 μM Tolbutamide) at the appropriate time points, mixed and placed at −20° C. for ≥1 hour to quench and allow protein to precipitate. All samples were centrifuged (2500×g, 20 minutes, 4° C.). The aliquots were analysed using LC-MS/MS. Reactions were performed in duplicate at 37° C.
(§4) Data were processed, and the results plotted as In(concentration) vs. time. The elimination rate constant (slope of the regression line, k) was calculated using the following formula, where C(t) is the concentration at time t and C(0) is the starting concentration:
(§5) The half-life (t1/2) was calculated using the following formula: […]
(§6) The intrinsic clearance (CIint) was calculated using the following formula, where [cell] is the hepatocyte concentration in the assay: […]

[2] = Human hepatocyte stability; format: in vitro ADME; conditions: human, pooled human hepatocytes, human hepatocytes, 1 μM, 60 minute incubation; for hepatocyte CLint at 1 μM: read-out: Human Clint (uL/min/million cells); for half-life at 1 μM: read-out: Human t1/2
Experimental: as §1, §2, §3, §4, §5, §6

[3] = Aqueous solubility in FaSSIF; format: physicochemical; conditions: kinetic from dmso stock, pH 6.5, three replicates
Experimental: Aqueous solubility was measured by equilibration of compounds with fasted state simulated intestinal fluid (FaSSIF) and quantified spectrophotometrically.
Preparation of blank FaSSIF: 0.21 g of sodium hydroxide (NaOH) pellets, 1.97 g of dihydrogen sodium phosphate (NaH2PO4.2H2O) and 3.09 g of sodium chloride (NaCl) were dissolved in 400 mL of deionised water. The pH was adjusted to 6.5 using 1 M hydrochloric acid and further deionised water added to a final volume of 500 mL.
Preparation of FaSSIF: 0.056 g of SIF Powder (containing sodium taurocholate and lecithin) (Phares AG) was dissolved in 25 mL of blank FaSSIF and stirred until the powder was completely dissolved. The solution was allowed to stand for 2 hours during which it became opalescent; it was used within 24 hours. The final solution composition was characterised as follows: • Sodium taurocholate: 3 mM • Lecithin: 0.75 mM • Osmolarity: 270±10 mOsmol • pH: 6.5
The optical density was measured at the end of the incubation period for test compounds and a reference used to determine solubility. In brief, two samples were prepared for each determination: a reference sample consisting of a stock solution of test compound in DMSO diluted in system solution (a phosphate free, low absorption buffer) and propanol; and a test sample (prepared in triplicate) consisting of 0.5 mL FaSSIF spiked with test compound at 0.2 mM. Each sample was incubated at room temperature for 16 hours with constant shaking at 250 rpm. At the end of the incubation period, 0.3 mL of each sample was filtered through a pION filter plate (PION, Woburn MA), diluted 1:1 with propanol and scanned using UV spectrophotometry at λmax ([…]) using a Spectra Max Plus—Version 2.1000 (Molecular Devices, Sunnyvale, CA), with pSOL Explorer solubility determination software (pION, Woburn, MA).
FaSSIF solubility was calculated using the following formula:
[formula] • wherein: • “OD” is the optical density; • “Cr” is the concentration of the reference (33.4 μM); and • “molecular weight” is for the test compound (e.g., 381.44 for ABD735).

human hepatocytes = experiment: Human hepatocyte stability; format: in vitro ADME; conditions: hepatocyte stability, compared to the reference compounds
Experimental: as §1, §2, §3, §4, §5, §6

[4] = Metabolite identification in rats; format: in vivo, Han Wistar rats; conditions: rat, 1 mg/kg intravenous
Experimental: The formation of metabolites in rats was assessed to determine the propensity of the compounds to form a biaryl metabolite.
The corresponding sulfonamide compounds (for example, reference compound HMC-C-01-A) give rise to a sulphonamide metabolite which is persistent and has a long half-life. In addition, the biaryl sulphonamide metabolite acts as an inducer of metabolism in rats, which may complicate the assessment of toxicity in rodents. Therefore, the lower the propensity to form a biaryl sulphonamide metabolite, the greater the potential suitability of the compound for development for human use.
Plasma samples from Han Wistar rats, aged 8-12 weeks, were collected from animals dosed with test compound. Test compounds at a dose of 1 mg/kg were administered intravenously as a solution in 5% NMP, 5% Solutol HS, and 90% normal saline. Animals were given free access to food throughout the study. Blood samples were taken under light isoflurane anaesthesia at 12 time points following an intravenous dose (0.033, 0.1, 0.167, 0.25, 0.5, 1, 2, 4, 6, 8, 12, and 24 hours). The blood samples were collected from a set of three rats at each time point in labelled micro centrifuge tube containing K2EDTA as anticoagulant. Plasma samples were separated by centrifugation of whole blood.
All samples were processed for analysis by protein precipitation using acetonitrile and analysed with a fit-for-purpose LC-MS/MS method.
At the completion of the study, the results were expressed as detection of the metabolite and time course of formation.

Compound | IC50 (CYP2C9) [µM] | IC50 (CYP2C19) [µM] | IC50 (CYP2D6) [µM] | IC50 (CYP3A4) [µM] | IC50 (CYP1A2) [µM] | IC50 [1] [nM] | hepatocyte CLint at 1 μM (Rat hepatocyte stability) [µL/min/1e6 cells] | half-life at 1 μM (Rat hepatocyte stability) [min] | hepatocyte CLint at 1 μM [2] [µL/min/1e6 cells] | half-life at 1 μM [2] [min] | solubility at 16 h [3] [µg/mL] | metabolic stability (in words) (human hepatocytes) | time after administration at which metabolite MET-002 was detected [4] [h] | formation of biaryl sulphonamide metabolite (MET-001) in plasma ([4]; up to 24 hours) | formation of biaryl sulphonic acid metabolite (MET-002) in plasma ([4]; up to 24 hours)
C[C@]1(O)CC[C@@H](CS(=O)(=O)c2ccc(-c3ccc(F)cc3F)cc2)CC1 [CHMSA-04-A, cis-4-(((2′,4′-Difluoro-(1,1′-biphenyl)-4-yl)sulfonyl)methyl)-1-methylcyclohexan-1-ol] |  |  |  |  |  | 980 | 37.4 | 47.1 | 40.6 | 27.5 | > 70 |  |  |  | 
C[C@]1(O)CC[C@H](CS(=O)(=O)c2ccc(-c3ncc(F)cc3F)c(F)c2)CC1 [CHMSA-03-B, trans-4-(((4-(3,5-Difluoropyridin-2-yl)-3-fluorophenyl)sulfonyl)methyl)-1-methylcyclohexan-1-ol] |  |  |  |  |  | 5400 |  |  | < 3 | > 460 |  | exceptionally good stability |  |  | 
C[C@]1(O)CC[C@H](CS(=O)(=O)c2ccc(-c3ccc(Cl)cc3C#N)cc2)CC1 [CHMSA-10-B, 4-Chloro-4′-((trans-4-hydroxy-4-methylcyclohexyl)methanesulfonyl)-(1,1′-biphenyl)-2-carbonitrile] |  |  |  |  |  | 1960 | 336 | 4.8 | 5.8 | 195 |  |  | 0.5 | did not produce any biaryl sulphonamide metabolite | detected only transiently; also recorded: only transiently detected
C[C@]1(O)CC[C@H](CS(=O)(=O)c2ccc(-c3ccc(F)cc3F)cc2)CC1 [CHMSA-04-B, trans-4-(((2′,4′-difluoro-(1,1′-biphenyl)-4-yl)sulfonyl)methyl)-1-methylcyclohexan-1-ol] |  |  |  |  |  | 2400 | 51.3 | 31.4 | < 3 | > 460 | 40 (≈ 105 µM) |  |  |  | 

Continued, in another order:

IC50 (CYP2C9) [µM] | IC50 (CYP2C19) [µM] | IC50 (CYP2D6) [µM] | IC50 (CYP3A4) [µM] | IC50 (CYP1A2) [µM] | IC50 [1] [nM] | hepatocyte CLint at 1 μM (Rat hepatocyte stability) [µL/min/1e6 cells] | half-life at 1 μM (Rat hepatocyte stability) [min] | hepatocyte CLint at 1 μM [2] [µL/min/1e6 cells] | half-life at 1 μM [2] [min] | solubility at 16 h [3] [µg/mL] | metabolic stability (in words) (human hepatocytes) | time after administration at which metabolite MET-002 was detected [4] [h] | Compound | formation of biaryl sulphonamide metabolite (MET-001) in plasma ([4]; up to 24 hours) | formation of biaryl sulphonic acid metabolite (MET-002) in plasma ([4]; up to 24 hours)
27 | > 50 | > 50 | > 50 | 36 |  |  |  |  |  |  |  |  | CC1(O)CCC(NS(=O)(=O)c2ccc(-c3ncc(Cl)cc3C#N)cc2)CC1 (stereo not drawn) [HMC-N-05-A, reference compound] |  | 
2.7 | 5.1 | 9.3 | 12 | 11 |  |  |  |  |  |  |  |  | CC1(O)CCC(NS(=O)(=O)c2ccc(-c3ccc(Cl)cc3C#N)c(Cl)c2)CC1 (stereo not drawn) [HMC-C-11-A, reference compound] |  | 
34 | > 50 | > 50 | 33 | 23 |  |  |  |  |  |  |  |  | CC1(O)CCC(NS(=O)(=O)c2ccc(-c3ccc(C#N)cc3Cl)cc2)CC1 (stereo not drawn) [HMC-C-09-A, reference compound] |  | 
2.4 | 8.5 | > 16 | 9.2 | > 16 |  |  |  |  |  |  |  |  | CC1(O)CCC(NS(=O)(=O)c2ccc(-c3cc(F)c(F)cc3F)cc2)CC1 (stereo not drawn) [HMC-C-10-B, reference compound] |  | 
 |  |  |  |  | 3200 |  |  | < 3.1 | > 442 |  | exceptionally good stability |  | C[C@]1(O)CC[C@H](CS(=O)(=O)c2ccc(-c3ccc(C#N)cc3)c(F)c2)CC1 [CHMSA-12-B, 2′-Fluoro-4′-(((trans-4-hydroxy-4-methylcyclohexyl)methyl)sulfonyl)-[1,1′-biphenyl]-4-carbonitrile] |  | 
